# In PMC10247784, “Physiological activation of human and mouse bitter taste receptors by bile acids” (Communications Biology, 2023):
# Values joined by “and” are separate entries in the source; they are usually repeats but may differ in a detail not shown here. Equal values may be shown once.
# Target: T1, human TAS2R1 (Homo sapiens, UniProt Q9NYW7)
# T1 construct: expressed in transfected cells; host or cells: HEK293T-Gα16gust44
# T1 sequence (Q9NYW7 1-299): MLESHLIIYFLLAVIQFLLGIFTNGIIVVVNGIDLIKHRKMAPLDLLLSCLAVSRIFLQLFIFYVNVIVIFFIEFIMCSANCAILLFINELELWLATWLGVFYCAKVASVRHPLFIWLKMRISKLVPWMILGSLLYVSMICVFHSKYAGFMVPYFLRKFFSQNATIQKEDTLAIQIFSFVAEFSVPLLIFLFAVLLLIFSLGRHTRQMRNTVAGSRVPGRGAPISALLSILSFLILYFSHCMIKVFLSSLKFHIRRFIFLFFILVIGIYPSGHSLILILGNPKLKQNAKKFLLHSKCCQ
# Experiment: Calcium imaging assay (FLIPR), HEK293T-Gα16gust44 cells transfected with human TAS2R1
# Assay type: cell-based
# Description: This set of bile acids was chosen because of their commercial availability in high purities, their diversity within the class of bile acids and their previous detection and quantitation in human blood. Stock solutions were prepared in DMSO.
# As basal growth medium for the HEK293T-Gα16gust44 cell line[17],[59] served Dulbecco’s modified eagle medium (DMEM) (Thermo Fisher Scientific, Darmstadt, Germany) supplemented with 10 % fetal bovine serum (Sigma-Aldrich, Steinheim, Germany), 2 mM L-glutamine (Sigma-Aldrich, Steinheim, Germany), 100 units/ml penicillin (Sigma Aldrich, Steinheim, Germany) and 100 µg/ml streptomycin (Sigma Aldrich, Steinheim, Germany). Growth conditions were 37 °C, 5 % CO2 and saturated air-humidity[60].
# HEK293T-Gα16gust44 cells were seeded on poly-D-lysine (10 µg/ml) coated 96-well plates to reach a confluence of 40-60 % the next day. For transient transfection 150 ng of plasmid DNA containing the receptor of interest and 0.3 µl lipofectamine 2000 (Thermo Fisher Scientific, Darmstadt, Germany) per well were used and transfection took place according to the manual of lipofectamine 2000. […] The empty vector DNA (mock) was transfected as negative control[14],[41].
# Cells were loaded using the calcium-sensitive fluorescent dye Fluo-4-AM (Abcam, Cambridge, Great Britain) in the presence of 2.5 mM probenecid (Sigma-Aldrich, Steinheim, Germany) the day after transfection[13],[41]. 1 h after loading, cells were washed with C1 buffer using a BioTek Cell Washer, incubated in the dark for half an hour and washed again. For automated agonist application and measurement of fluorescence changes, a FLIPR^TETRA device (Molecular Devices, San José, United States) was used. Viability of cells was tested by application of 100 nM Somatostatin 14 (Bachem, Bubendorf, Switzerland)[42].
# Measured data were negative control corrected by subtracting the signal of the mock-transfected cells and exported to Microsoft Excel using the FLIPR software ScreenWorks 4.2. In Microsoft Excel software, standardization of maximum fluorescence intensities to the basal fluorescence and normalization to the buffer-only control was done to calculate the relative fluorescence changes (ΔF/F).
# Initial screening experiments performed in duplicate wells were confirmed by at least one replication and representative traces were selected for display. All dose-response relationships were determined by three independent experiments (biological replicates) performed in duplicates (technical replicates). Threshold concentrations, defined as lowest substance concentrations leading to statistically significant elevated fluorescence changes in receptor-transfected cells compared with empty vector-transfected cells, were determined using SigmaPlot with Student’s t-test to evaluate statistical significance (p < 0.01).
compound,measurement,setting,value
"C[C@H](CCC(=O)NCC(=O)O)[C@H]1CC[C@H]2[C@@H]3[C@H](O)C[C@@H]4C[C@H](O)CC[C@]4(C)[C@H]3C[C@H](O)[C@]12C [Glycocholic Acid, glycocholic acid]",Efficacy = maximal amplitude (ΔF/F),"TAS2R1, bile acids, mean",0.1325
same,"Efficacy (maximal amplitude ΔF/F), individual data points","TAS2R1, bile acids, single replicates, listed as GCA",0.1311 and 0.1247 and 0.1416
same,RLU,Time 0 s (second time grid),0 RLU
same,RLU,Time 2 s,1.34 RLU
same,RLU,Time 4 s,-10.9328 RLU
same,RLU,Time 6 s,-2.093 RLU
same,RLU,Time 8 s,-18.797 RLU
same,RLU,Time 12 s,-1.765 RLU
same,RLU,Time 14 s,-6.3 RLU
same,RLU,Time 16 s,4.111 RLU
same,RLU,Time 18 s,11.3452 RLU
same,RLU,Time 18.781 s,-8.381 RLU
same,RLU,Time 20.781 s,-65.4734 RLU
same,RLU,Time 22.781 s,-29.3432 RLU
same,RLU,Time 24.781 s,49.9011 RLU
same,RLU,Time 26.781 s,96.1968 RLU
same,RLU,Time 28.781 s,184.074 RLU
same,RLU,Time 30.781 s,256.685 RLU
same,RLU,Time 32.781 s,311.082 RLU
same,RLU,Time 34.781 s,379.127 RLU
same,RLU,Time 36.781 s,406.227 RLU
same,RLU,Time 38.781 s,484.171 RLU
same,RLU,Time 40.781 s,488.749 RLU
same,RLU,Time 42.781 s,562.235 RLU
same,RLU,Time 44.781 s,571.006 RLU
same,RLU,Time 46.781 s,594.154 RLU
same,RLU,Time 48.781 s,570.694 RLU
same,RLU,Time 50.781 s,587.34 RLU
same,RLU,Time 52.781 s,583.343 RLU
same,RLU,Time 54.781 s,607.705 RLU
same,RLU,Time 56.781 s,600.065 RLU
same,RLU,Time 58.781 s,617.139 RLU
same,RLU,Time 60.781 s,617.101 RLU
same,RLU,Time 62.781 s,619.569 RLU
same,RLU,Time 64.781 s,627.557 RLU
same,RLU,Time 66.781 s,602.719 RLU
same,RLU,Time 68.781 s,631.839 RLU
same,RLU,Time 70.781 s,609.358 RLU
same,RLU,Time 72.781 s,606.454 RLU
same,RLU,Time 74.781 s,603.445 RLU
same,RLU,Time 76.781 s,621.396 RLU
same,RLU,Time 78.781 s,618.749 RLU
same,RLU,Time 80.781 s,605.728 RLU
same,RLU,Time 82.781 s,588.632 RLU
same,RLU,Time 84.781 s,592.001 RLU
same,RLU,Time 86.781 s,573.367 RLU
same,RLU,Time 88.781 s,587.481 RLU
same,RLU,Time 90.781 s,582.427 RLU
same,RLU,Time 92.781 s,543.758 RLU
same,RLU,Time 94.781 s,568.088 RLU
same,RLU,Time 96.781 s,550.308 RLU
same,RLU,Time 98.781 s,566.578 RLU
same,RLU,Time 100.781 s,550.017 RLU
same,RLU,Time 102.781 s,549.55 RLU
same,RLU,Time 104.781 s,541.673 RLU
same,RLU,Time 106.781 s,534.917 RLU
same,RLU,Time 108.781 s,501.47 RLU
same,RLU,Time 110.781 s,477.052 RLU
same,RLU,Time 112.781 s,487.765 RLU
same,RLU,Time 114.781 s,493.52 RLU
same,RLU,Time 116.781 s,450.802 RLU
same,RLU,Time 118.781 s,454.358 RLU
same,RLU,Time 120.781 s,451.439 RLU
same,RLU,Time 122.781 s,430.145 RLU
same,RLU,Time 124.781 s,453.415 RLU
same,RLU,Time 126.781 s,442.632 RLU
same,RLU,Time 128.781 s,400.74 RLU
same,RLU,Time 130.781 s,403.872 RLU
same,RLU,Time 132.781 s,393.75 RLU
same,RLU,Time 134.781 s,397.711 RLU
same,RLU,Time 136.781 s,397.074 RLU
same,RLU,Time 137.547 s,371.152 RLU
same,RLU,Time 143.547 s,348.952 RLU
same,RLU,Time 149.547 s,319.38 RLU
same,RLU,Time 155.547 s,291.839 RLU
same,RLU,Time 161.547 s,291.362 RLU
same,RLU,Time 167.547 s,251.037 RLU
same,RLU,Time 173.547 s,217.997 RLU
same,RLU,Time 179.547 s,213.168 RLU
same,RLU,Time 185.547 s,202.093 RLU
same,RLU,Time 191.547 s,176.088 RLU
same,RLU,Time 197.547 s,167.876 RLU
same,RLU,Time 203.547 s,164.283 RLU
same,RLU,Time 209.547 s,146.788 RLU
same,RLU,Time 215.547 s,144.843 RLU
same,RLU,Time 221.547 s,126.114 RLU
same,RLU,Time 227.547 s,89.1702 RLU
same,RLU,Time 233.547 s,107.472 RLU
same,RLU,Time 239.547 s,82.2731 RLU
same,RLU,Time 245.547 s,57.4201 RLU
same,RLU,Time 293.547 s,58.9267 RLU
same,RLU,Time 299.547 s,40.6004 RLU
same,RLU,"calcium trace, sheet TAS2R1, Time 305.547 s",58.5113 RLU
same,RLU,"calcium trace, sheet TAS2R1, Time 311.547 s",53.2069 RLU
same,RLU,"calcium trace, sheet TAS2R1, Time 317.547 s",43.3091 RLU
same,RLU,"calcium trace, sheet TAS2R1, Time 323.547 s",43.6147 RLU
same,RLU,"calcium trace, sheet TAS2R1, Time 329.547 s",33.081 RLU
same,RLU,"calcium trace, sheet TAS2R1, Time 335.547 s",47.1496 RLU
same,RLU,"calcium trace, sheet TAS2R1, Time 341.547 s",32.1596 RLU
same,RLU,"calcium trace, sheet TAS2R1, Time 347.547 s",48.6454 RLU
same,RLU,"calcium trace, sheet TAS2R1, Time 353.547 s",51.461 RLU
same,RLU,"calcium trace, sheet TAS2R1, Time 359.547 s",49.6251 RLU
same,Δ F/F,"conc. 0,01 mM, TAS2R1",0.004283
same,Δ F/F,"conc. 0,1 mM, TAS2R1",0.04907
same,Δ F/F,"conc. 0,03 mM, TAS2R1",0.009584
same,Δ F/F,"conc. 0,3 mM, TAS2R1",0.1325
same,Δ F/F,"conc. 0,001 mM, TAS2R1",0.006338
same,Δ F/F,"conc. 0,003 mM, TAS2R1",-0.001187
same,Activation threshold concentration TAS2R1,lowest concentration with significantly increased fluorescence vs empty vector (p < 0.01),100 µM and 100.00 µM
